Data as given in patent publication US6576263B2, “Delivery systems using preformed biodegradable polymer compositions and methods” (3M Innovative Properties Company, priority 2000, dated 2003).

Columns and labels:
Format in all cases: physicochemical
[1] = Release of 5FU from preformed, dried albumin/PEG-(SS)2 plugs reconstituted with 5FU solution; conditions: rehydrated albumin/PEG-(SS)2 plug, PBS pH 7.4, room temperature
Procedure: Two polymer plugs were preformed in a modified 5-milliliter (ml) poly syringe, wherein the syringe barrel was cut to form an open cylindrical receptacle, and then by mixing 0.5 ml of 29% albumin solution (obtained from American Biological Technology, Seguin, Tex. or by diafiltration (Procedure B) as described above) and 0.5 ml of 136 mg/ml PEG-(SS)2 crosslinker. After crosslinking was complete (15 minutes) the plugs were removed from the syringe and pushed out. The polymer plugs were dried under vacuum for 24 hours (hr). The plugs were reconstituted with […] of a 5FU solution (1.04 mg/ml from Sigma Chemical Co, St. Louis, Mo.) so that each plug contained a total of 187.6 micrograms (μg), or 165.5 μg of 5FU. Each plug was placed into a separate vial, and five ml of phosphate buffered saline (PBS), at pH 7.4, were added at sample time 0 (t0). The vials were maintained at room temperature and were shaken continuously. At each sample time, the entire content of the vial was removed and replaced with 5 ml of fresh PBS. Samples were taken at 0.25 hr, 0.5 hr, 1 hr, 2 hr, 3 hr, 4 hr, 5 hr, 6 hr, and 24 hr. Ana of 5FU was analyzed by high-pressure liquid chromatography, following the method of Bernatchez et al., Int. J. Pharm., 106, 161-166 (1994).

[2] = Release of 5-fluorouracil from plug made with 5FU mixed with the crosslinker and albumin; conditions: over an 8-hr period; 5FU added with crosslinker, PBS pH 7.4, room temperature
Procedure: 136 mg of PEG-(SS)2 crosslinker was dissolved in 1 ml of a 1.04 mg/ml 5-Fluorouracil solution. This solution was then mixed into 1 ml of 30% albumin solution (see Example 2) already in a 5-ml form. The resulting hydrogel plug was removed from the form after 15 minutes and cut into three equal sized pieces (approximately 0.5 cm in thickness). Each piece was then placed into a vial and 4 ml of a PBS buffer (pH 7.4) added at sample time 0 (t0). The vials were maintained at room temperature and were shaken continuously. At each sample time, the entire content of the vial was removed and replaced with 4 ml of fresh PBS. Samples were taken at 1 hr, 2 hr, 4 hr, and 8 hr.

[3] = Release of 5FU from albumin plugs containing alginic acid without added calcium; conditions: over a 5-hr period; alginate/5FU without calcium in albumin plug, PBS pH 7.4
Procedure: (§1) One milliliter of 1.04 mg/ml 5-fluorouracil was mixed with 30 mg of alginic acid. The pH of the mixture was brought to 6.8, and then placed into a vacuum desiccator with DRIERITE to dry for 24 hr. The resulting alginate/5FU film was ground up and mixed into the 30% albumin solution (see Example 2) just prior to being placed into the 5 ml syringe forms and crosslinked with an equivalent volume of PEG-(SS)2 crosslinker (136 mg/ml). Each plug was placed into a separate vial, and 5 ml of phosphate buffered saline (PBS), at pH 7.4, was added at sample time 0 (t0). The vials were maintained at room temperature and were shaken continuously. At each sample time, the entire content of the vial was removed and replaced with 5 ml of fresh PBS. Samples were taken at 1 hr, 2 hr, 3 hr, 4 hr, 5 hr, and 24 hr.
The 5FU was analyzed as in Example 1.

[4] = Release of 5FU from albumin plugs containing alginic acid with added calcium; conditions: over a 5-hr period; alginate/Ca/5FU in albumin plug, PBS pH 7.4
Procedure: as §1, with “One ml of 1.04” for “One milliliter of 1.04”, “6.8, and 150 μl of a saturated calcium chloride/water solution was added to gel the alginate. The gel was divided into 3 approximately equal volumes and then placed” for “6.8, and then placed”, “The resulting alginate/Ca/5FU films were ground up” for “The resulting alginate/5FU film was ground up”, “into the 5-ml forms and” for “into the 5 ml syringe forms and”, “vial, and five mls of phosphate” for “vial, and 5 ml of phosphate”
The 5FU was analyzed as described in Example 1.

[5] = Release of cefazolin from albumin plugs made with 4-arm PEG crosslinker; conditions: albumin/4-arm PEG plug, PBS pH 7.4, room temperature
Procedure: Two polymer plugs were preformed from 0.5 ml of 30% albumin solution (Procedure B) and 0.5 ml of 110 mg/ml 4-arm-N-hydroxysuccinimidyl ester of poly(ethylene glycol)-succinate crosslinker (Shearwater Polymers, Inc., Huntsville, Ala.). Approximately 10 mg of sodium cefazolin (Sigma Chemical. Co., St. Louis, Mo.) was dissolved in the albumin before the crosslinker was added to form the cylindrical plugs. Each formed plug was placed into a separate vial, and 8 mls of phosphate buffered saline (PBS) at pH 7.4 was added at sample time (t0). The vials were maintained at room temperature and were shaken continuously. At each sample time, the entire content of the vial was removed and replaced with eight ml of fresh PBS. Samples were taken at 0.25, 0.5, 1, 2, 3, 4, 5, and 24 hours and approximately every 24 hours thereafter up to 144 hours.
Cefazolin was analyzed by high-pressure liquid chromatography, following the method of Liang et al, J. Chromatog. B., 656, 45-465 (1994). The column was a Waters C-18 (3.9×300 mm) column sold under the tradename MICROBONDAPAK and the column temperature was maintained at 25° C. The mobile phase consisted of 0.02M sodium phosphate buffer (pH=5.0 and methanol (77:23). The wavelength used for detection was 270 nm and the column flow rate was 1.0 ml/min.

time period over which 5FU was released [1] [h] | 5-fluorouracil released [2] | 5FU released [3] | 5FU released [4] | total cefazolin released ([5]; over 144 hours) [%] | cefazolin released ([5]; over the first 5-hour time period) | SMILES
5 | about 55% | about 40% | about 60% | – | – | O=c1[nH]cc(F)c(=O)[nH]1 [Example 5FU, 5-fluorouracil]
– | – | – | – | 95.6 | approximately 67% | Cc1nnc(SCC2=C(C(=O)O)N3C(=O)[C@@H](NC(=O)Cn4cnnn4)[C@H]3SC2)s1 [cefazolin]
